{
  "source": "patent US20080038728A1",
  "about": "“Quadruple Transformed Cell Line Useful for the Identification of Transport Inhibitors” (priority 2004, published 2008)",
  "molecules": {"B1": {"name": "OATP2B1 (Homo sapiens) (protein)", "chain": "MGPRIGPAGEVPQVPDKETKATMGTENTPGGKASPDPQDVRPSVFHNIKLFVLCHSLLQLAQLMISGYLKSSISTVEKRFGLSSQTSGLLASFNEVGNTALIVFVSYFGSRVHRPRMIGYGAILVALAGLLMTLPHFISEPYRYDNTSPEDMPQDFKASLCLPTTSAPASAPSNGNCSSYTETQHLSVVGIMFVAQTLLGVGGVPIQPFGISYIDDFAHNSNSPLYLGILFAVTMMGPGLAFGLGSLMLRLYVDINQMPEGGISLTIKDPRWVGAWWLGFLIAAGAVALAAIPYFFFPKEMPKEKRELQFRRKVLAVTDSPARKGKDSPSKQSPGESTKKQDGLVQIAPNLTVIQFIKVFPRVLLQTLRHPIFLLVVLSQVCLSSMAAGMATFLPKFLERQFSITASYANLLIGCLSFPSVIVGIVVGGVLVKRLHLGPVGCGALCLLGMLLCLFFSLPLFFIGCSSHQIAGITHQTSAHPGLELSPSCMEACSCPLDGFNPVCDPSTRVEYITPCHAGCSSWVVQDALDNSQVFYTNCSCVVEGNPVLAGSCDSTCSHLVVPFLLLVSLGSALACLTHTPSFMLILRGVKKEDKTLAVGIQFMFLRILAWMPSPVIHGSAIDTTCVHWALSCGRRAVCRYYNNDLLRNRFIGLQFFFKTGSVICFALVLAVLRQQDKEARTKESRSSPAVEQQLLVSGPGKKPEDSRV", "notes": "expressed in transfected cells; host or cells: MDCKII (canine kidney) ABCC2 single-transfectant, further transfected with pcDNA3.1/Hygro(-)-OATP2B1"}, "B2": {"name": "OATP1B1 (Homo sapiens) (protein)", "chain": "MDQNQHLNKTAEAQPSENKKTRYCNGLKMFLAALSLSFIAKTLGAIIMKSSIIHIERRFEISSSLVGFIDGSFEIGNLLVIVFVSYFGSKLHRPKLIGIGCFIMGIGGVLTALPHFFMGYYRYSKETNINSSENSTSTLSTCLINQILSLNRASPEIVGKGCLKESGSYMWIYVFMGNMLRGIGETPIVPLGLSYIDDFAKEGHSSLYLGILNAIAMIGPIIGFTLGSLFSKMYVDIGYVDLSTIRITPTDSRWVGAWWLNFLVSGLFSIISSIPFFFLPQTPNKPQKERKASLSLHVLETNDEKDQTANLTNQGKNITKNVTGFFQSFKSILTNPLYVMFVLLTLLQVSSYIGAFTYVFKYVEQQYGQPSSKANILLGVITIPIFASGMFLGGYIIKKFKLNTVGIAKFSCFTAVMSLSFYLLYFFILCENKSVAGLTMTYDGNNPVTSHRDVPLSYCNSDCNCDESQWEPVCGNNGITYISPCLAGCKSSSGNKKPIVFYNCSCLEVTGLQNRNYSAHLGECPRDDACTRKFYFFVAIQVLNLFFSALGGTSHVMLIVKIVQPELKSLALGFHSMVIRALGGILAPIYFGALIDTTCIKWSTNNCGTRGSCRTYNSTSFSRVYLGLSSMLRVSSLVLYIILIYAMKKKYQEKDINASENGSVMDEANLESLNKNKHFVPSAGADSETHC", "notes": "expressed in transfected cells; host or cells: MDCKII (canine kidney), co-expressing ABCC2"}},
  "key": {"[1]": {"system": "OATP1B1, OATP1B3, and OATP2B1", "test": "Uptake (intracellular accumulation) kinetics in ABCC2/OATP1B1/1B3/2B1 quadruple-transfected MDCKII cells", "type": "in vitro ADME, human", "details": "human, pH 7.3, cell line ABCC2-OATP1B1/1B3/2B1 (quadruple-transfectant); intracellular accumulation of 3H-labeled substrate; read-out: Km", "method": "(§1) (a) MDCKII cells were grown on ThinCerts (24-mm diameter, pore size 0.4 μm, pore density 1×10^8 per cm^2) and induced with butyrate as mentioned above. The cells were washed in prewarmed (37° C.) transport buffer (142 mM NaCl, 5 mM KCl, 1 mM KH2PO4, 1.2 mM MgSO4, 1.5 mM CaCl2, 5 mM glucose, and 12.5 mM HEPES, pH 7.3). The ^3H-labeled substrate was dissolved in transport buffer and added either to the apical or to the basolateral compartment at the concentration indicated. After incubation at 37° C., the radioactivity in the opposite compartment was measured by sampling aliquots from the apical or basolateral compartment. Cells were washed 2 times with ice-cold transport buffer containing 0.5% bovine serum albumin and 3 times in ice-cold transport buffer. Intracellular accumulation of radioactivity was calculated by lyzing the cells with 0.2% sodium dodecyl sulfate (SDS) and measuring the radioactivity in the lysate."}, "[2]": {"biological_target": "T1, ABCC2 (Homo sapiens, UniProt Q92887)", "T1 sequence (Q92887 whole entry)": "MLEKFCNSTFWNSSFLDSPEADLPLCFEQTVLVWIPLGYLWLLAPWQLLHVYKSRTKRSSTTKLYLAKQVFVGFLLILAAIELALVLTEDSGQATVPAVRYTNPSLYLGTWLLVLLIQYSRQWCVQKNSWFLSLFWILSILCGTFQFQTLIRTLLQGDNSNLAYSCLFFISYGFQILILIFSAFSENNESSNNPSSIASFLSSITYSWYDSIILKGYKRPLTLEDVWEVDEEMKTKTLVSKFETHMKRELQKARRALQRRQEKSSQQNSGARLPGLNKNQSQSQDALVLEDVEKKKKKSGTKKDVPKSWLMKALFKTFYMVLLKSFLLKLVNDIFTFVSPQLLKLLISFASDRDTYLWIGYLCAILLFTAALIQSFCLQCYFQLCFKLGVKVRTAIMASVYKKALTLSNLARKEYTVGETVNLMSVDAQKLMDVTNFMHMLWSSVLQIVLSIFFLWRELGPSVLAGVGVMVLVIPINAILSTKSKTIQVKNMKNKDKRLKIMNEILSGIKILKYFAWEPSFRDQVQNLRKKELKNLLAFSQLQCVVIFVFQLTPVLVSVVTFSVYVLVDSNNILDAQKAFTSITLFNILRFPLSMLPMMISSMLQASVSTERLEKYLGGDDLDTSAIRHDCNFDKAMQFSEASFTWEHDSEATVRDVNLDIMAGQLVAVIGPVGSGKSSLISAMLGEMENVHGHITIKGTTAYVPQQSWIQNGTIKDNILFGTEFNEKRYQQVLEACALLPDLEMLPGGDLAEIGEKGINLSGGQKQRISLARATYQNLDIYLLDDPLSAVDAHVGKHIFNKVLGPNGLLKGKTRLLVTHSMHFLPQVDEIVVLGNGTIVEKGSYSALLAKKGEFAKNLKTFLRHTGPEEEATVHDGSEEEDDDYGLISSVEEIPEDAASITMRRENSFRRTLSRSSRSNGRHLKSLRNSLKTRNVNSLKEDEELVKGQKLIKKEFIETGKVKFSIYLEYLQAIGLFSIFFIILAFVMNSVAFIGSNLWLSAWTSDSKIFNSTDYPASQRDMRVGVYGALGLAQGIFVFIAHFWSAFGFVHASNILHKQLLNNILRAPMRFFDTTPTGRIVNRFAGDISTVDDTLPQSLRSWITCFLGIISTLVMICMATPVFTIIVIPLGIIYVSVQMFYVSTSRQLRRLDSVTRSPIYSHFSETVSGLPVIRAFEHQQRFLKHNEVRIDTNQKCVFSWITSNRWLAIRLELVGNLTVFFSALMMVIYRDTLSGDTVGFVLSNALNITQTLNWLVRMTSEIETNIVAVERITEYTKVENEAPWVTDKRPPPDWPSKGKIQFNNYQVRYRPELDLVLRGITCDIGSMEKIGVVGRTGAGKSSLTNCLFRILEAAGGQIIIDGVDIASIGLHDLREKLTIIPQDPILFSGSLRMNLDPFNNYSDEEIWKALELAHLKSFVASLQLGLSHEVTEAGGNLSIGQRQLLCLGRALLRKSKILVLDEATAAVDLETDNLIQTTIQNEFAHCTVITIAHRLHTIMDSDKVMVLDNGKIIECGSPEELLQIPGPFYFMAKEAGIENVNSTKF", "details": "MDCK", "method": "ATP-dependent transport into inside-out membrane vesicles prepared from MDCKII-ABCC2 single-transfectants (ABCC2, closed circles) or vector-transfected MDCKII cells (Control, open circles) was measured for 1, 3, and 5 min as described in Example 1. Data are means ±SD determined from 3 measurements.\nTransport of estrone 3-sulfate into inside-out membrane vesicles was performed using nick spin columns as described (Keppler et al., 1998). Membrane vesicles were prepared from MDCKII vector-transfected control cells and MDCKII-ABCC2 single transfected cells described by Cui et al. (1999) and Letschert et al. (2005). ATP-dependent transport was determined by subtracting values obtained in the presence of 5′-AMP from those in the presence of ATP."}, "[3]": {"biological_target": "T2, OATP1B3 (Homo sapiens, UniProt Q9NPD5)", "T2 sequence (Q9NPD5 1-702)": "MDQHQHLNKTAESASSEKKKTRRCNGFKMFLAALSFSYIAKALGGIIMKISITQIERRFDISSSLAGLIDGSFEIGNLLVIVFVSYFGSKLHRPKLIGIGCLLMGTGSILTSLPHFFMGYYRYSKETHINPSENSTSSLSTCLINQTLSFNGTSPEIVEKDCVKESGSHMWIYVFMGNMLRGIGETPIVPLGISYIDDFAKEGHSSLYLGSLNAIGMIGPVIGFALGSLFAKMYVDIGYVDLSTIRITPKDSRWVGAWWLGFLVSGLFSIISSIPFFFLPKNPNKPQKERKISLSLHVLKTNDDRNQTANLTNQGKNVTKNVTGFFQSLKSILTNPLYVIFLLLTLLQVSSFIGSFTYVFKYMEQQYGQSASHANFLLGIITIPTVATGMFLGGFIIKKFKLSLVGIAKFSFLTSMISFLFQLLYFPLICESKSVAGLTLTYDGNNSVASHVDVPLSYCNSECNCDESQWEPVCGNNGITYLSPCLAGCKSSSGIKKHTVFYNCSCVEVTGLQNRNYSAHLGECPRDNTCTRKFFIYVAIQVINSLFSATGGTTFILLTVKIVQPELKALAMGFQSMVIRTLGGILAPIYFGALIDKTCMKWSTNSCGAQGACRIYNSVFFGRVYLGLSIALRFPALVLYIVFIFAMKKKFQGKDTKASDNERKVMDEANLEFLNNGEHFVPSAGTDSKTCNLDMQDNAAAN", "test": "Uptake (intracellular accumulation) kinetics in ABCC2/OATP1B3 double-transfected MDCKII cells", "type": "in vitro ADME", "set-up": "expressed in transfected cells; host or cells: MDCKII (canine kidney), co-expressing ABCC2", "details": "cell line ABCC2-OATP1B3, intracellular accumulation of 3H-labeled substrate", "method": "as §1"}, "[4]": {"biological_target": "T3, OATP2B1 (Homo sapiens, UniProt O94956)", "T3 sequence (O94956 1-709)": "B1 chain", "test": "Uptake (intracellular accumulation) kinetics in ABCC2/OATP2B1 double-transfected MDCKII cells", "type": "in vitro ADME", "set-up": "expressed in transfected cells; host or cells: MDCKII (canine kidney) ABCC2 single-transfectant, further transfected with pcDNA3.1/Hygro(-)-OATP2B1", "details": "human, MDCKII cells double-transfected with ABCC2 and OATP2B1, pH 7.3; cell line ABCC2-OATP2B1; intracellular accumulation of 3H-labeled substrate; 5-min uptake", "method": "as §1, with “The cells were washed in prewarmed (37° C.) transport buffer (142 mM NaCl, 5 mM KCl, 1 mM KH2PO4, 1.2 mM MgSO4, 1.5 mM CaCl2, 5 mM glucose, and 12.5 mM HEPES, pH 7.3).” left out"}, "[5]": {"system": "ABCC2 together with OATP1B1, OATP1B3, and OATP2B1", "test": "Transport studies (transcellular transport, intracellular accumulation) in all double- and quadruple-transfected MDCKII cells", "type": "in vitro ADME, human", "details": "all 3 double-transfected and quadruple-transfected MDCKII cells, 5 μM BSP 15 min, 1 μM E3S, 0.5 μM Fluva in basolateral compartment", "method": "as §1\n(b) Transport assays were further carried out as described in Cui et al., Mol. Pharmacol. 60 (2001), 934-43. The apical localization of MRP2 and the basolateral expression of OATP1B1, OATP1B3 and OATP2B1 in the quadruple transfectants was shown by the generation of polar proliferation of the cells after initial growing on Transwell membrane inserts (24 mm diameter, […] pore size, Corning Costar) and by use of confocal laser scanning microscopy. […]"}, "[6]": {"biological_target": "T1, ABCC2", "set-up": "expressed in transfected cells; host or cells: MDCKII-ABCC2 single-transfected cells (membrane vesicles)", "details": "BSP: Cui et al., 2001; CCK-8: Letschert et al., 2005; cited from earlier work"}, "[7]": {"system": "MDCKII cell clones", "test": "Transcellular leakage of [3H]inulin across MDCKII cell monolayers", "type": "in vitro ADME, canine", "details": "1 μM [3H]inulin in basolateral compartment, apical radioactivity after 30 min; all MDCKII cell clones", "method": "The transcellular leakage was determined by addition of 1 μM [^3H]inulin to the basolateral compartment and measurement of the radioactivity appearing in the apical compartment after an incubation period of 30 min. The transcellular leakage was 1-2% of the radioactivity added for all MDCKII cell clones examined in this study."}, "[8]": {"substrate": "CC(C)n1c(/C=C/C(O)CC(O)CC(=O)O)c(-c2ccc(F)cc2)c2ccccc21", "test": "cells, lysate or membranes named", "details": "intracellular accumulation of 3H-labeled substrate, 5-min uptake, pH 7.3, 37.0 °C"}, "[9]": {"substrate": "O=C1OC(c2ccc(O)c(S(=O)(=O)O)c2)(c2ccc(O)c(S(=O)(=O)O)c2)c2c(Br)c(Br)c(Br)c(Br)c21", "test": "Uptake (intracellular accumulation) kinetics in ABCC2/OATP2B1 double-transfected MDCKII cells", "type": "in vitro ADME, human", "details": "other: cell line ABCC2-OATP2B1; intracellular accumulation of 3H-labeled substrate; 5-min uptake; pH 7.3; 37.0 °C", "protocol": "(§2) (a) MDCKII cells were grown on ThinCerts (24-mm diameter, pore size 0.4 μm, pore density 1×10^8 per cm^2) and induced with butyrate as mentioned above. […] The ^3H-labeled substrate was dissolved in transport buffer and added either to the apical or to the basolateral compartment at the concentration indicated. After incubation at 37° C., the radioactivity in the opposite compartment was measured by sampling aliquots from the apical or basolateral compartment. Cells were washed 2 times with ice-cold transport buffer containing 0.5% bovine serum albumin and 3 times in ice-cold transport buffer. Intracellular accumulation of radioactivity was calculated by lyzing the cells with 0.2% sodium dodecyl sulfate (SDS) and measuring the radioactivity in the lysate."}, "[10]": {"substrate": "O=C1OC(c2ccc(O)c(S(=O)(=O)O)c2)(c2ccc(O)c(S(=O)(=O)O)c2)c2c(Br)c(Br)c(Br)c(Br)c21", "test": "Uptake (intracellular accumulation) kinetics in ABCC2/OATP1B1 double-transfected MDCKII cells", "type": "in vitro ADME, human", "details": "other: cell line ABCC2-OATP1B1; intracellular accumulation of 3H-labeled substrate; 5-min uptake; pH 7.3; 37.0 °C", "protocol": "as §2"}},
  "data": [
    {"molecule": "CC(C)n1c(/C=C/C(O)CC(O)CC(=O)O)c(-c2ccc(F)cc2)c2ccccc21", "note": "(centres unmarked) [Fluvastatin, fluvastatin]", "values": [
      {"measurement": "Km", "setting": "[1]", "result": 2300, "unit": "nM"},
      {"measurement": "substrate for ABCC2", "setting": "[2]; human", "result": "not a substrate for ABCC2"},
      {"measurement": "Vmax", "setting": "[3]", "result": "53.6 ± 11.0 pmol · mg protein^−1 · min^−1"},
      {"measurement": "Km at 5 min", "setting": "[3]; human, MDCKII cells double-transfected with ABCC2 and OATP1B3, pH 7.3, 5-min uptake, read-out: Km", "result": "7 ± 2.5", "unit": "µM"},
      {"measurement": "Km at 5 min", "setting": "[4]", "result": 700, "unit": "nM"}
    ]},
    {"molecule": "C[C@]12CC[C@@H]3c4ccc(OS(=O)(=O)O)cc4CC[C@H]3[C@@H]1CCC2=O", "note": "[estrone 3-sulfate]", "values": [
      {"measurement": "transcellular (vectorial) transport, basolateral to apical", "setting": "[5]", "result": "transported transcellularly"},
      {"measurement": "transcellular (vectorial) transport, basolateral to apical", "setting": "[5]; listed as [^3H]estrone 3-sulfate", "result": "detected"},
      {"measurement": "ABCC2-mediated transport in the presence of ATP, enhanced compared to controls", "setting": "[2]", "result": 3.1, "unit": "fold"}
    ]},
    {"molecule": "cholecystokinin-8 sulfate [CCK-8]", "values": [
      {"measurement": "Km", "setting": "[6]", "result": 8.1, "unit": "µM"}
    ]},
    {"molecule": "inulin [[^3H]inulin]", "values": [
      {"measurement": "transcellular leakage", "setting": "[7]", "result": "1-2 % of the radioactivity added"}
    ]},
    {"molecule": "B1", "values": [
      {"measurement": "Km", "setting": "[8]; other: cell line ABCC2-OATP2B1", "result": "0.7 ± 0.3", "unit": "µM"},
      {"measurement": "Vmax", "setting": "[8]; other: cell line ABCC2-OATP2B1", "result": "23.0 ± 2.6 pmol · mg protein^−1 · min^−1"},
      {"measurement": "Km", "setting": "[9]", "result": 3.4, "unit": "µM"}
    ]},
    {"molecule": "B2", "values": [
      {"measurement": "Km", "setting": "[8]; other: cell line ABCC2-OATP1B1", "result": "2.4 ± 0.9", "unit": "µM"},
      {"measurement": "Vmax", "setting": "[8]; other: cell line ABCC2-OATP1B1", "result": "43.4 ± 6.7 pmol · mg protein^−1 · min^−1"},
      {"measurement": "Km", "setting": "[10]", "result": 2.4, "unit": "µM"},
      {"measurement": "Vmax", "setting": "[10]", "result": "41.5 ± 5.2 pmol · mg protein^−1 · min^−1"}
    ]}
  ]
}
